What was measured:
healthy subjects [1] = assay: FIH study, single-dose MR part: safety and tolerability; assay type: in vivo, human
Description: The subjects received a single oral dose of 1 of 4 MR formulations of IMB-1018972 under fasted conditions (an overnight fast of at least 10 hours) on Days 1, 4, 7, and 10 in a fixed order that was the same for all subjects. The MR formulation of IMB-1018972 to be administered on Day 13 under fed conditions was 1 of the 4 MR formulations administered on Days 1, 4, 7, and 10 under fasted conditions. The formulation chosen for administration on Day 13 was the 200 mg 8-hour MR formulation as determined by the Sponsor based on the available safety, tolerability, and PK results of the 4 MR formulations.
(§1) AEs were recorded from (first) admission until completion of the follow-up visit. Any clinically significant observations in results of clinical laboratory, 12-lead ECGs, vital signs, or physical examinations were recorded as AEs.
(§2) A treatment-emergent AE (TEAE) was defined as any event not present prior to (the first) administration of the study drug or any event already present that worsened in either severity or frequency following exposure to the study drug.
(§3) At several time points before and after drug administration, subjects were asked nonleading questions to determine the occurrence of AEs. Subjects were asked in general terms about any AEs at regular intervals during the study. In addition, all AEs reported spontaneously during the course of the study were recorded. Details included description of the event, date and time of onset, date and time of end, total duration, severity, relationship to study drug, intervention, seriousness, and outcome. All answers were interpreted by the Investigator and were recorded in the eCRF. All AEs were classified according to the Medical Dictionary for Regulatory Activities (MedDRA; Version 22.0) for AEs.
(§4) The severity of the AEs was rated as mild, moderate, or severe; the relationship between the AEs and the study drug was indicated as none, unlikely, possibly, likely, or definitely. Adverse events assessed as possibly, likely, or definitely were considered related to the study drug; AEs assessed as none or unlikely were considered not related to the study drug.
(§5) The following parameters were measured: • Clinical chemistry (serum quantitatively): total bilirubin, alkaline phosphatase, gamma glutamyl transferase, aspartate aminotransferase (AST), alanine aminotransferase (ALT), lactate dehydrogenase, creatinine, urea, total protein, glucose, inorganic phosphate, sodium, potassium, • calcium, and chloride • Hematology (blood quantitatively): leukocytes, erythrocytes, hemoglobin, hematocrit, thrombocytes, partial automated differentiation (lymphocytes, monocytes, eosinophils, basophils, and neutrophils), mean corpuscular volume, mean corpuscular hemoglobin, and mean corpuscular hemoglobin concentration • Coagulation (blood quantitatively): prothrombin time (reported in seconds and as international normalized ratio), activated partial thromboplastin time, and fibrinogen • Urinalysis (urine qualitatively): hemoglobin, urobilinogen, ketones, glucose, and protein • Serology: HBsAg, anti-HCV, and anti-HIV 1 and 2 • Drug and alcohol screen: opiates, methadone, cocaine, amphetamines (including ecstasy), cannabinoids, barbiturates, benzodiazepines, tricyclic antidepressants, and alcohol • Pregnancy test (females only): (3-human chorionic gonadotropin in serum

healthy subjects [2] = assay: FIH study, MAD part: safety and tolerability; assay type: in vivo, human
Description: Subjects received multiple oral doses of an IR formulation of IMB-1018972 or placebo once every 12 hours (q12h) for 14 consecutive days. Each subject participated in only 1 group during the study.
The doses were selected based upon the safety, tolerability, and PK data from the SAD part: • Group B1 multiple oral doses of an IR formulation of 150 mg IMB-1018972 (n=9) or matching placebo (n=3) twice daily (q12h) for 14 days; on Day 14 only a single morning dose was administered • Group B2: multiple oral doses of an IR formulation of 50 mg IMB-1018972 (n=9) or matching placebo (n=3) q12h for 14 days; on Day 14 only a single morning dose was administered
as §1, §2, §3, §4
In the MAD part, a 12-lead ECG was recorded continuously by telemetry from 2 hours before to 12 hours after drug administration on Day 1, and from 2 hours before to 24 hours after drug administration on Day 14.

[3] = system: patients with stable angina; assay: Blinded, randomized, controlled Phase 2 study IMB101-006 […]: spontaneously reported renal and urinary findings; assay type: in vivo, human; conditions: 200 mg MR BID for 8 weeks, blinded (N=22)
Description: In the early Phase 1 study in healthy volunteers and early Phase 2 studies in patients, there were instances of increased urine volume and increased urinary frequency spontaneously reported. • In the first-in-man study, CIMB8972-101, healthy volunteers were dosed with single doses of IMB-1018972 at 50 mg or 200 mg of the modified release (MR) formulation. Two of 12 subjects [2/12] (16.7%) reported 5 events of pollakiuria at both doses. • In an open label Phase 2 study (IMB101-005 DICE) treating patients with Type 2 Diabetes mellitus and obesity for 8 weeks with 200 mg MR BID, two of 22 patients [2/22] (9.1%) spontaneously reported renal and urinary findings. One patient reported pollakiuria and one patient reported increased nocturnal urinary frequency. • In a blinded, randomized, controlled, Phase 2 study (IMB101-006 […]) treating patients with stable angina for 8 weeks with 200 mg MR BID, one of 22 patients [1/22] (4.5%) spontaneously reported renal and urinary findings. One patient reported polyuria.

healthy subjects [4] = assay: FIH study, whole study: safety and tolerability
Description: The study started with the SAD part.
as §1, §2, §3, §4, §5
Systolic and diastolic blood pressure and pulse were recorded after the subject had been resting for at least 5 minutes in the supine position. These assessments were made using an automated device. Body temperature and respiratory rate were measured subsequently.
The ECG was recorded using an ECG machine equipped with computer-based interval measurements (with no/minimal disturbance by procedures). The following ECG parameters were recorded: heart rate, PR-interval, QRS-duration, QT-interval, QTcF-interval, and the interpretation of the ECG profile by the Investigator.
Safety and tolerability were assessed through AEs, clinical laboratory, vital signs, ECGs, continuous cardiac monitoring (telemetry), and physical examination findings, and any other parameter that was relevant for safety assessment.

[5] = single-dose MR part, IMB-1018972 (N=12)
[6] = single-dose MR part, of 37 TEAEs
[7] = MAD part, all IMB-1018972 doses (N=18)

SMILES: COc1ccc(CN2CCN(CCOC(=O)c3cccnc3)CC2)c(OC)c1OC [IMB-1018972, 2-[4-[(2,3,4-trimethoxyphenyl)methyl]piperazin-1-yl]ethyl pyridine-3-carboxylate]
- Subjects reporting pollakiuria (healthy subjects [1]; single doses of 50 mg or 200 mg MR IMB-1018972 (N=12)): 16.7%
- Dose or dissolution time dependency of number and incidence of TEAEs (healthy subjects [1]; single-dose MR part): no apparent dose or dissolution time dependency
- Moderate TEAE of ALT increased (1 subject, withdrawn): relationship to the study drug (Investigator) (healthy subjects [1]; single-dose MR part): possibly related
- Number of drug-related TEAEs of ALT increased (healthy subjects [1]; single-dose MR part): 1
- Number of drug-related TEAEs of headache (healthy subjects [1]; single-dose MR part): 1
- Severe TEAEs (healthy subjects [1]; single-dose MR part): No severe TEAEs
- TEAEs of flushing (healthy subjects [1]; single-dose MR part): No TEAEs of flushing
- Number of TEAEs considered not related to the study drug (healthy subjects [1]; single-dose MR part (N=12)): 30
- Number of TEAEs considered related to the study drug (healthy subjects [1]; single-dose MR part (N=12)): 7
- Number of TEAEs, SOC gastrointestinal disorders (healthy subjects [1]; single-dose MR part (N=12)): 5
- Number of TEAEs, SOC general disorders and administration site conditions (healthy subjects [1]; single-dose MR part (N=12)): 11
- Number of TEAEs, SOC nervous system disorders (healthy subjects [1]; single-dose MR part (N=12)): 8
- Subjects reporting TEAEs considered not related to the study drug (healthy subjects [1]; single-dose MR part (N=12)): 83.3%
- Subjects reporting TEAEs considered related to the study drug (healthy subjects [1]; single-dose MR part (N=12)): 33.3%
- Subjects reporting TEAEs, SOC gastrointestinal disorders (healthy subjects [1]; single-dose MR part (N=12)): 33.3%
- Subjects reporting TEAEs, SOC general disorders and administration site conditions (healthy subjects [1]; single-dose MR part (N=12)): 58.3%
- Subjects reporting TEAEs, SOC nervous system disorders (healthy subjects [1]; single-dose MR part (N=12)): 58.3%
- Difference between fasted and fed administration for number and incidence of TEAEs (healthy subjects [1]; single-dose MR part, 200 mg 8-hour MR): no clear difference
- Number of TEAEs (healthy subjects [1]; [5]): 37
- Subjects reporting TEAEs (healthy subjects [1]; [5]): 83.3%
- Number of TEAEs of mild severity (healthy subjects [1]; [6]): Thirty-six
- Number of TEAEs of moderate severity (healthy subjects [1]; [6]): 1
- AST levels, Subject 505 (healthy subjects [1]; throughout the entire period): within normal range
- TEAEs of flushing (healthy subjects [2]; 50 mg IMB-1018972 q12h): No TEAEs of flushing
- Number of TEAEs (healthy subjects [2]; 50 mg IMB-1018972 q12h fed): 21
- Subjects reporting TEAEs (healthy subjects [2]; 50 mg IMB-1018972 q12h fed): 77.8%
- Number of TEAEs of flushing (incidental, mild) (healthy subjects [2]; 150 mg IMB-1018972 q12h): 7
- Subjects with TEAEs of flushing (healthy subjects [2]; 150 mg IMB-1018972 q12h): 6 subjects
- Number of TEAEs (healthy subjects [2]; 150 mg IMB-1018972 q12h fed): 14
- Subjects reporting TEAEs (healthy subjects [2]; 150 mg IMB-1018972 q12h fed): 77.8%
- Tolerability (healthy subjects [2]; 14-day oral q12h 50 mg and 150 mg IMB-1018972, fed): well tolerated
- Severity of all TEAEs (healthy subjects [2]; MAD part): mild
- Number of TEAEs considered not related to the study drug (healthy subjects [2]; MAD part, IMB-1018972 (N=18)): 28
- Number of TEAEs, SOC general disorders and administration site conditions (healthy subjects [2]; MAD part, IMB-1018972 (N=18)): 7
- Number of TEAEs, SOC musculoskeletal and connective tissue disorders (healthy subjects [2]; MAD part, IMB-1018972 (N=18)): 7
- Number of TEAEs, SOC vascular disorders (flushing) (healthy subjects [2]; MAD part, IMB-1018972 (N=18)): 7
- Subjects reporting TEAEs considered not related to the study drug (healthy subjects [2]; MAD part, IMB-1018972 (N=18)): 61.1%
- Subjects reporting TEAEs considered related to the study drug (healthy subjects [2]; MAD part, IMB-1018972 (N=18)): 33.3%
- Subjects reporting TEAEs, SOC general disorders and administration site conditions (healthy subjects [2]; MAD part, IMB-1018972 (N=18)): 27.8%
- Subjects reporting TEAEs, SOC musculoskeletal and connective tissue disorders (healthy subjects [2]; MAD part, IMB-1018972 (N=18)): 27.8%
- Subjects reporting TEAEs, SOC vascular disorders (flushing) (healthy subjects [2]; MAD part, IMB-1018972 (N=18)): 33.3%
- Number of TEAEs considered related to the study drug (healthy subjects [2]; MAD part, IMB-1018972 (N=18), all flushing at 150 mg q12h): 7
- Number of TEAEs (healthy subjects [2]; [7]): 35
- Subjects reporting TEAEs (healthy subjects [2]; [7]): 77.8%
- Patients reporting polyuria [3]: One
- Patients spontaneously reporting renal and urinary findings [3]: 4.5%
- Subjects withdrawn from the study due to adverse events (healthy subjects [4]; 1 SAE influenza like illness, 1 TEAE ALT increased): Two
- Hemodynamic changes and QTc-interval (healthy subjects [4]; IR or MR formulations): no findings of hemodynamic changes, nor changes in the QTc-interval
- Dose dependency of number and incidence of TEAEs (healthy subjects [4]; overall): no clear dose dependency
- Overall tolerability (healthy subjects [4]; single and multiple oral doses, IR and MR formulations): generally well tolerated
- Clinical laboratory, vital signs, 12-lead ECG, continuous cardiac monitoring (telemetry), physical examination (healthy subjects [4]; whole study): no findings of clinical relevance
- Deaths (healthy subjects [4]; whole study): no deaths
- Severe TEAEs (healthy subjects [4]; whole study): no severe TEAEs
- Number of TEAEs of moderate severity (healthy subjects [4]; whole study, all treatments): 12
- Total number of TEAEs (healthy subjects [4]; whole study, all treatments): 181

From patent US12285428B2 (IMBRIA PHARMACEUTICALS, INC., priority 2021, dated 2025)
